Results: BindingDB's records for doi:10.1021/jm100470t (Ume&#163, 2010)
pIC50: −log10 of the molar value.

Assay: Inhibition of Escherichia coli UTI89 PapD chaperon assessed as inhibition of biofilm formation

Row | Compound | pIC50
1 | O=C(O)c1c(Cc2ccccc2)sc2c(C3CC3)c(Cc3cccc4ccccc34)cc(=O)n12 | 5.15
2 | Cc1ccc(-c2sc3c(C4CC4)c(Cc4cccc5ccccc45)cc(=O)n3c2C(=O)O)cc1 | 4.89
3 | Cc1sc2c(C3CC3)c(Cc3cccc4ccccc34)cc(=O)n2c1C(=O)O | 4.05
4 | O=C(O)c1c(-c2ccsc2)sc2c(C3CC3)c(Cc3cccc4ccccc34)cc(=O)n12 | 4.60
5 | O=C(Nc1ccccc1)c1sc2c(C3CC3)c(Cc3cccc4ccccc34)cc(=O)n2c1C(=O)O | 3.80
6 | O=C(O)c1c(-c2ccccc2)sc2c(C3CC3)c(Cc3cccc4ccccc34)cc(=O)n12 | 4.96
7 | CS(=O)(=O)NC(=O)c1c(-c2ccccc2)sc2c(C3CC3)c(Cc3cccc4ccccc34)cc(=O)n12 | 4.41
8 | O=C(O)c1c(-c2ccoc2)sc2c(C3CC3)c(Cc3cccc4ccccc34)cc(=O)n12 | 4.11
9 | Cc1cccc(-c2sc3c(C4CC4)c(Cc4cccc5ccccc45)cc(=O)n3c2C(=O)O)c1 | 4.96
10 | O=C(O)c1c(-c2ccco2)sc2c(C3CC3)c(Cc3cccc4ccccc34)cc(=O)n12 | 4.21
11 | CC(C)(O)c1sc2c(C3CC3)c(Cc3cccc4ccccc34)cc(=O)n2c1C(=O)O | 3.52
